Source: patent publication US20130225830A1, “POLYMORPHS OF FEBUXOSTAT” (MAPI PHARMA LIMITED, priority 2010, published 2013)
≈ marks a conversion by molar mass, not a printed value. Where two headings read alike, the source gives them in different places.

Columns and labels:
Assay type in all cases: physicochemical
[1] = Aqueous solubility measurements; conditions: for solubility at 24 h: 25 °C, thermodynamic from solid, read-out: HPLC solubility; for pH: final pH of saturated solution
Experimental: Testing media: water, pH 1.2, 4.5, 6.8, 7.4 USP buffers, 0.01 N HCl, 0.1 N HCl, SGF, FaSSIF, FeSSIF.
The various testing media were prepared as follows:
pH 1.2 (USP): 50 mL of 0.2 M potassium chloride solution were placed in a 200 mL volumetric flask to which 85.0 mL of 0.2M hydrochloric acid solution were added followed by the addition of water to obtain the required volume.
pH 4.5 (USP): 50 mL of 0.2 M potassium biphthalate solution were placed in a 200 mL volumetric flask to which 8.8 mL of 0.2 M sodium hydroxide solution were added followed by the addition of water to obtain the required volume.
pH 6.8 (USP): 50 mL of 0.2 M monobasic potassium phosphate solution were placed in a 200 mL volumetric flask to which 22.4 mL of 0.2 M sodium hydroxide solution were added followed by the addition of water to obtain the required volume.
pH 7.4 (USP): 50 mL of 0.2 M monobasic potassium phosphate solution were placed in a 200 mL volumetric flask to which 39.1 mL of 0.2 M sodium hydroxide solution were added followed by the addition of water to obtain the required volume.
Simulated gastric fluid (SGF): 0.01 N HCl, 0.05% sodium lauryl sulfate, and 0.2% NaCl.
Fasted state simulated intestinal fluid (FaSSIF): 29 mM NaH2PO4, 3 mM Na taurocholate, 0.75 mM lecithin, 103 mM NaCl, and NaOH to obtain pH 6.5.
Fed state simulated intestinal fluid (FeSSIF): 144 mM acetic acid, 15 mM Na taurocholate, 3.75 mM lecithin, 204 mM NaCl, and NaOH to obtain pH 5.0.
Testing procedure: The tested febuxostat form was placed in each of the different media and was kept shaken for 24 hours at 25° C. Then, the saturated solution was filtered. The concentration of the febuxostat form in filtrate was determined by HPLC. The final pH was then tested. The test was conducted in duplication.

[2] = Hygroscopicity measurements (DVS sorption/desorption profiles); conditions: 25° C.
Experimental: The sorption/desorption profiles of the forms of the present invention were tested at 25° C. under 0-90% relative humidity. The forms of the present invention were classified according to the following criteria: Deliquescent: Sufficient water is absorbed to form a liquid. […] Hygroscopic: Increase in mass is less than 15% and equal to or greater than 2%. Slightly hygroscopic: Increase in mass is less than 2% and equal to or greater than 0.2%. Non-hygroscopic: Increase in mass is less than 0.2%.

[3] = Bulk and tapped density measurements
Experimental: Bulk density testing: A febuxostat form in an amount which is sufficient to complete the test was passed through a 1.0 mm (No. 18) screen to break up agglomerates that may have formed during storage. The febuxostat form was then weighed (M) and the powder was added into a 10 mL graduated cylinder. The powder was carefully leveled without compacting, and the unsettled apparent volume, Vo, was read. The bulk density, in g per mL, was calculated by the formula: Bulk Density=M/Vo Tapped density testing: A febuxostat form in an amount which is sufficient to complete the test was passed through a 1.0 mm (No. 18) screen to break up agglomerates that may have formed during storage. The febuxostat form was then weighed and the powder was added into a 10 mL graduated cylinder. The powder was carefully leveled without compacting. The cylinder was tapped 500 times initially and the tapped volume, Va, was measured to the nearest graduated unit. The tapping was then repeated for additional 750 times and the tapped volume, Vb, was measured to the nearest graduated unit. If the difference between the two volumes was less than 2%, Vb was taken as the final tapped volume, Vf. The tapped density, in g per mL, was calculated by the formula: Tapped Density=M/Vf

[4] = media 0.01N HCl, 24 hours at 25° C.
[5] = media 0.1N HCl, 24 hours at 25° C.
[6] = media FaSSIF, 24 hours at 25° C.
[7] = media FeSSIF, 24 hours at 25° C.
[8] = media pH 1.2 (USP), 24 hours at 25° C.
[9] = media pH 4.5 (USP), 24 hours at 25° C.
[10] = media pH 6.8 (USP), 24 hours at 25° C.
[11] = media pH 7.4 (USP), 24 hours at 25° C.
[12] = media water, 24 hours at 25° C.

Cc1nc(-c2ccc(OCC(C)C)c(C#N)c2)sc1C(=O)O [Form G of U.S. Pat. No. 6,225,474, 2-(3-cyano-4-isobutoxyphenyl)-4-methyl-5-thiazolecarboxylic acid, reference compound]
solubility at 24 h ([1]; FaSSIF, pH 6.5, fassif, media FaSSIF, 24 hours at 25° C.): 448 µg/mL (≈ 1420 µM) | solubility at 24 h ([1]; FeSSIF, pH 5, fessif, media FeSSIF, 24 hours at 25° C.): 132 µg/mL (≈ 418 µM) | pH [1, 4]: 1.987 | pH [1, 5]: 0.945 | pH [1, 6]: 6.384 | pH [1, 7]: 4.965 | pH ([1]; media SGF, 24 hours at 25° C.): 2.118 | pH [1, 8]: 1.089 | pH [1, 9]: 4.469 | pH [1, 10]: 6.686 | pH [1, 11]: 6.985 | pH ([1]; media water, shaken 24 hours at 25° C.): 8.416 | Visual solubility [1, 4]: few particles | Visual solubility [1, 5]: few particles | Visual solubility [1, 6]: Turbid + few particles | Visual solubility [1, 7]: Turbid + few particles | Visual solubility ([1]; media SGF, 24 hours at 25° C.): few particles | Visual solubility [1, 8]: few particles | HPLC solubility [1, 9]: 0.11 µg/mL | Visual solubility [1, 9]: few particles | HPLC solubility [1, 10]: 764.90 µg/mL | Visual solubility [1, 10]: Turbid + few particles | Visual solubility [1, 11]: Slightly Turbid + few | HPLC solubility [1, 12]: 29.80 µg/mL | Visual solubility [1, 12]: Turbid + few particles | solubility at 24 h ([1]; pH 7.4 USP buffer, pH 7.4, aqueous buffer, media pH 7.4 (USP), 24 hours at 25° C.): 3330 µg/mL (≈ 10500 µM) | Change in Mass (%) - ref, Desorption ([2]; Target % P/P0 0.0): −0.013% | Change in Mass (%) - ref, Sorption ([2]; Target % P/P0 0.0): 0.000% | Change in Mass (%) - ref, Desorption ([2]; Target % P/P0 10.0): 1.323% | Change in Mass (%) - ref, Hysteresis ([2]; Target % P/P0 10.0): 0.241% | Change in Mass (%) - ref, Sorption ([2]; Target % P/P0 10.0): 1.082% | Change in Mass (%) - ref, Desorption ([2]; Target % P/P0 20.0): 1.540% | Change in Mass (%) - ref, Hysteresis ([2]; Target % P/P0 20.0): 0.215% | Change in Mass (%) - ref, Sorption ([2]; Target % P/P0 20.0): 1.326% | Change in Mass (%) - ref, Desorption ([2]; Target % P/P0 30.0): 1.692% | Change in Mass (%) - ref, Hysteresis ([2]; Target % P/P0 30.0): 0.219% | Change in Mass (%) - ref, Sorption ([2]; Target % P/P0 30.0): 1.473% | Change in Mass (%) - ref, Desorption ([2]; Target % P/P0 40.0): 1.806% | Change in Mass (%) - ref, Hysteresis ([2]; Target % P/P0 40.0): 0.181% | Change in Mass (%) - ref, Sorption ([2]; Target % P/P0 40.0): 1.625% | Change in Mass (%) - ref, Desorption ([2]; Target % P/P0 50.0): 1.923% | Change in Mass (%) - ref, Hysteresis ([2]; Target % P/P0 50.0): 0.173% | Change in Mass (%) - ref, Sorption ([2]; Target % P/P0 50.0): 1.750% | Change in Mass (%) - ref, Desorption ([2]; Target % P/P0 60.0): 2.074% | Change in Mass (%) - ref, Hysteresis ([2]; Target % P/P0 60.0): 0.158% | Change in Mass (%) - ref, Sorption ([2]; Target % P/P0 60.0): 1.915% | Change in Mass (%) - ref, Desorption ([2]; Target % P/P0 70.0): 2.229% | Change in Mass (%) - ref, Hysteresis ([2]; Target % P/P0 70.0): 0.119% | Change in Mass (%) - ref, Sorption ([2]; Target % P/P0 70.0): 2.109% | Change in Mass (%) - ref, Desorption ([2]; Target % P/P0 80.0): 2.420% | Change in Mass (%) - ref, Hysteresis ([2]; Target % P/P0 80.0): 0.078% | Change in Mass (%) - ref, Sorption ([2]; Target % P/P0 80.0): 2.342% | Change in Mass (%) - ref, Desorption ([2]; Target % P/P0 90.0): 2.776% | Change in Mass (%) - ref, Sorption ([2]; Target % P/P0 90.0): 2.776% | Bulk Density [3]: 0.376 g/mL | Tapped Density [3]: 0.511 g/mL
